From patent publication US9173823B2, “Preparation for sun protection” (INSTITUT BIOPHYTIS SAS, priority 2009, dated 2015)

How the values were obtained:
human skin explants = assay: Sunburn cell (SBC) count in UV-irradiated human skin explants; type: cell-based; conditions: for reduction of the number of SBC in the epidermis compared to the untreated and irradiated skin: 7 days of treatment, UV irradiation; for reduction of the number of SBC in the epidermis compared to the untreated and irradiated skin / Number of SBC per cm, Irradiated, Average: P1 330 ng·mL-1, P2 and P3 15.5 ng·mL-1; for Number of SBC per cm, Irradiated, Average: UVB 0.30 J/cm^2 and UVA 9 J/cm^2 on day 7, collection 24 hours after irradiation; for Number of SBC per cm, Unirradiated, Mean: unirradiated explants, day 8, P1 330 ng·mL-1, P2 and P3 15.5 ng·mL-1 in medium from day 0
Procedure: 3. Experimental Study of the Effect of a Bixin-Enriched Urucum Extract, of Bixin and of Norbixin (FIG. 1). Following treatment and UV-B irradiation of human skin explants, a Masson trichrome staining allows the visualization and counting of SBC. 3.1 Tested Products: • P1: urucum organic extract titrated at 6% bixin (330 ng·mL-1) • P2: pure bixin (15.5 ng·mL-1) • P3: pure norbixin (15.5 ng·mL-1) 27 explants (3 per condition) with a diameter of 10 mm were prepared from an abdominoplasty. The explants were cultured at 37° C. in a humid atmosphere containing 5% CO2. These explants were divided into nine (9) batches as follows: Urucum extract was dissolved in DMSO. The three products were added to the medium on the first day (D0), in order to achieve the desired final concentrations. The final amount of DMSO in the medium still remained below 1%. The explants of the control batch received no treatment. On day 7, the explants were exposed to UVB at a dose of 0.30 J/cm^2 and UVA at a dose of 9 J/cm^2. Non-irradiated batches were placed in the dark during the whole irradiation time. Immediately after irradiation, the explants were put back into culture medium. At day 8, i.e. 24 hours after irradiation, the three explants from each batch were taken and processed in the same way. After 48 hours of fixation in Bouin's fixative, samples were dried and impregnated in paraffin using a Leica 1020 automated dehydration controller. Microscopic observations were made by optical microscopy using a Leica DMLB model, with the ×40 lens. Observation of the morphology was performed on paraffin sections after staining with Goldner's variant of Masson's trichrome. Sunburn cells (SBC) were counted throughout each epidermis. The length of each epidermis was measured using the measurement module of the Leica IM1000 and the number of SBC per cm of skin was then calculated.

[1] = after ingestion of an oily annatto solution containing 16 mg bixin, cited from earlier work; for time for which the plasma concentration was observed: norbixin above 25 ng·mL^−1, bixin at 10 ng·mL^−1
plasmid DNA = conditions: norbixin 10 μM, 10 μM H2O2, Sn^2+ or Fe^2+ ions; cited from earlier work
E. coli = conditions: UV-radiation in the presence of H2O2 or superoxide anion; cited from earlier work
SOS system = conditions: in the presence of norbixin; cited from earlier work
Salmonella typhimurium = conditions: cited from earlier work
[2] = bixin in an extract standardized at 92% bixin; norbixin for an extract standardized at 91% of norbixin; cited from earlier work
[3] = cell-free, xanthine/xanthine oxidase system; cited from earlier work
chromosomal damage = conditions: mice, oral, 200 mg per kilogram of body weight before γ-irradiation (1.5-3.0 Gy); cited from earlier work
[4] = orally administered prior to chemotherapy; cited from earlier work
[5] = single dose of 120 mg or daily dose of 90 mg over 23 days; cited from earlier work

Compound	reduction of the number of SBC in the epidermis compared to the untreated and irradiated skin (human skin explants) [%]	Number of SBC per cm, Irradiated, Average (human skin explants) [per cm]	Number of SBC per cm, Unirradiated, Mean (human skin explants) [per cm]	plasma concentration [1]	time for which the plasma concentration was observed [1]	daily acceptable dose (JECFA) [2] [mg/kg]	superoxide scavenging ability, decreasing order [3]	further results
CC(/C=C/C=C(C)/C=C/C(=O)O)=C\C=C\C=C(C)\C=C\C=C(C)\C=C\C(=O)O (stereo in doubt) [P3, norbixin]	84.4	25.5	0.3	higher than 25 ng·mL^−1	more than 6 hours	0.6	–	protection of plasmid DNA against breaks (plasmid DNA): protect plasmid DNA; increase of survival of bacteria (factor) (E. coli): 10; reduction of the UV-C induced SOS system (SOS system): 2.3 times; reduction of the mutagenic effect of H2O2 (Salmonella typhimurium): 87%
COC(=O)/C=C/C(C)=C\C=C\C(C)=C\C=C\C=C(C)\C=C\C=C(C)\C=C\C(=O)O [P2, bixin]	74.4	41.9	0.3	10 ng/mL	less than 4 hours	12	canthaxanthin>bixin>lutein>β-carotene	chromosomal damage, micronucleus test (chromosomal damage): reduced the occurrence of chromosomal damage; effect on side-effects of chemotherapy [4]: reduce the side-effects of chemotherapy
CC1=C(/C=C/C(C)=C/C=C/C(C)=C/C=C/C=C(C)/C=C/C=C(C)/C=C/C2=C(C)C(=O)CCC2(C)C)C(C)(C)CCC1=O [canthaxanthin]	–	–	–	–	–	–	canthaxanthin>bixin>lutein>β-carotene	–
CC1=C[C@H](O)CC(C)(C)[C@H]1/C=C/C(C)=C/C=C/C(C)=C/C=C/C=C(C)/C=C/C=C(C)/C=C/C1=C(C)C[C@@H](O)CC1(C)C [lutein]	–	–	–	–	–	–	canthaxanthin>bixin>lutein>β-carotene	–
CC1=C(/C=C/C(C)=C/C=C/C(C)=C/C=C/C=C(C)/C=C/C=C(C)/C=C/C2=C(C)CCCC2(C)C)C(C)(C)CCC1 [β-carotene]	–	–	–	–	–	–	canthaxanthin>bixin>lutein>β-carotene	protective effect against sun [5]: ineffective
